What all share (type): physicochemical
A short description of data set [1]: Stoichiometry (acid/freebase) by 1H NMR or HPLC/IC. From the text: Solution NMR was collected on Bruker 500M NMR Spectrometer using DMSO-d6 and CD3OD as solvents.
Agilent 1100 HPLC was utilized to analyze the purity and stoichiometry, with detailed method listed in below.
IC method for counter-ion content measurement is listed below.
(§1) All hits were further characterized by TGA and DSC, with the stoichiometry determined by ^1H NMR or HPLC/IC. Based on the characterization data in Table 2 below, most of them were considered to be anhydrates.

A short description of data set [2]: Thermogravimetric analysis (TGA) weight loss of crystalline hits. Conditions: for Speculated Form: based on TGA/DSC characterization data. The protocol:
(§2) TGA data were collected using a TA Q500 and Q550 from TA Instruments. DSC was performed using a TA Q2000 from TA Instruments. DSC was calibrated with Indium reference standard and the TGA was calibrated using nickel reference standard.
as §1

The nature of data set [3]: Differential scanning calorimetry (DSC) endotherms of crystalline hits. Conditions: for DSC Endo. (onset, ° C.): onset temperature; for DSC Endo., peak temperature: peak temperature (footnote *). The protocol:
as §2, §1
Background: DSC measures the heat that a sample takes up or gives off during a temperature scan.

Data set [4] in a line: Storage of the solid salt at ambient conditions (physical stability / hygroscopicity). From the text: One mesylate crystal form was obtained via screening. Mesylate Type A was generated via reactive crystallization (molar ratio of 1:1) in ethyl acetate/hexane (1:2, v/v) at RT.

Where two headings read alike, the source gives them in different places.

Turning to `Br.CCCCc1nc(-c2ccc(OCCCN(CC)CC)cc2)cn1-c1ccc(Oc2ccc(Cl)cc2)cc1` [HBr salt Type A], the “Stoichiometry (acid/base)” value in data set [1] amounted to 1.05. For the same compound, in data set [2], the “TGA Wt. Loss (%)” value was “negligible” and the “Speculated Form” value is given as “Anhydrate”. Further, the “DSC Endo. (onset, ° C.)” value in data set [3] stood at 169.9 °C.

Regarding `CCCCc1nc(-c2ccc(OCCCN(CC)CC)cc2)cn1-c1ccc(Oc2ccc(Cl)cc2)cc1.COc1cc(C(=O)O)ccc1O` [Vanillate Type A], the “Stoichiometry (acid/base)” value in data set [1] was 1.04. Also, in data set [2], the “TGA Wt. Loss (%)” value is reported as “negligible” and the “Speculated Form” value is on record as “Anhydrate”. In addition, the “DSC Endo. (onset, ° C.)” value in data set [3] was found to be 99.6 °C.

Take `CCCCc1nc(-c2ccc(OCCCN(CC)CC)cc2)cn1-c1ccc(Oc2ccc(Cl)cc2)cc1.O=C(O)[C@@H](O)[C@H](O)[C@H](O)[C@@H](O)C(=O)O` [Galactarate Type A]: the “Stoichiometry (acid/base)” value in data set [1] is 0.98. The “Speculated Form” value in data set [2] is reported as “Anhydrate”. In addition, in data set [2] (up to 130° C.), the “TGA Wt. Loss (%)” value is 0.6 up to %. Besides, in data set [3], the “DSC Endo. (onset, ° C.)” value worked out at 158.4 °C and the “DSC Endo., peak temperature” value came out at 106.3 °C.

In the case of `CCCCc1nc(-c2ccc(OCCCN(CC)CC)cc2)cn1-c1ccc(Oc2ccc(Cl)cc2)cc1.O=C(O)c1cc(O)ccc1O` [Gentisate Type B], the “Stoichiometry (acid/base)” value in data set [1] was found to be 1.03. In data set [2], the “TGA Wt. Loss (%)” value is “negligible” and the “Speculated Form” value is “Anhydrate”. The “DSC Endo. (onset, ° C.)” value in data set [3] is 122.9 °C.

On to `CCCCc1nc(-c2ccc(OCCCN(CC)CC)cc2)cn1-c1ccc(Oc2ccc(Cl)cc2)cc1.Cl` [HCl salt Type A], for which the “Stoichiometry (acid/base)” value in data set [1] is given as 1.33. In data set [2], the “TGA Wt. Loss (%)” value is listed as “negligible” and the “Speculated Form” value is on record as “Anhydrate”. For the same compound, the “DSC Endo. (onset, ° C.)” value in data set [3] was determined as 167.0 °C.

Consider `CCCCc1nc(-c2ccc(OCCCN(CC)CC)cc2)cn1-c1ccc(Oc2ccc(Cl)cc2)cc1.O=C(O)/C=C/C(=O)O` [Fumarate Type A], for which the “Stoichiometry (acid/base)” value in data set [1] is on record as 1.00. Moreover, in data set [2], the “TGA Wt. Loss (%)” value is “negligible” and the “Speculated Form” value is “Anhydrate”. Also, the “DSC Endo. (onset, ° C.)” value in data set [3] is 115.0 °C.

`CCCCc1nc(-c2ccc(OCCCN(CC)CC)cc2)cn1-c1ccc(Oc2ccc(Cl)cc2)cc1.O=C(O)C(=O)O` [Oxalate Type A]: the “Stoichiometry (acid/base)” value in data set [1] was 1.12. For the same compound, in data set [2], the “TGA Wt. Loss (%)” value is recorded as “negligible” and the “Speculated Form” value is listed as “Anhydrate”. In addition, in data set [3], the “DSC Endo. (onset, ° C.)” value came to 109.5 °C.

In the case of `CCCCc1nc(-c2ccc(OCCCN(CC)CC)cc2)cn1-c1ccc(Oc2ccc(Cl)cc2)cc1.CS(=O)(=O)O` [Mesylate Type A], the “Storage at ambient conditions” value in data set [4] (ambient conditions) is on record as “+”. The “Hygroscopicity / stability under ambient conditions, as suggested by the gel conversion” value in data set [4] (ambient conditions, inferred from conversion to gel) is “highly hygroscopic and unstable”. Further, the “Physical stability of the sample after storage at ambient conditions” value in data set [4] (solid, storage at ambient conditions) was “converted to gel”.

Turning to `CCCCc1nc(-c2ccc(OCCCN(CC)CC)cc2)cn1-c1ccc(Oc2ccc(Cl)cc2)cc1.O=C(O)C[C@H](O)C(=O)O` [L-Malate Type A], in data set [1], the “Stoichiometry (acid/base)” value was found to be 1.11. Further, in data set [2], the “TGA Wt. Loss (%)” value is listed as “negligible” and the “Speculated Form” value is given as “Anhydrate”. Moreover, in data set [3], the “DSC Endo. (onset, ° C.)” value was determined as 67.8 °C.

Consider `CCCCc1nc(-c2ccc(OCCCN(CC)CC)cc2)cn1-c1ccc(Oc2ccc(Cl)cc2)cc1.O=C(O)/C=C\C(=O)O` [Maleate Type A], for which, in data set [1], the “Stoichiometry (acid/base)” value was 0.97. In addition, in data set [2], the “TGA Wt. Loss (%)” value is “negligible” and the “Speculated Form” value was “Anhydrate”. The “DSC Endo. (onset, ° C.)” value in data set [3] was 120.2 °C.

For `CCCCc1nc(-c2ccc(OCCCN(CC)CC)cc2)cn1-c1ccc(Oc2ccc(Cl)cc2)cc1.O=C(O)C(O)C(O)C(=O)O` [L-Tartrate Type A], in data set [1], the “Stoichiometry (acid/base)” value came out at 1.00. The “Speculated Form” value in data set [2] is listed as “Hydrate”. In addition, in data set [2] (up to 60° C.), the “TGA Wt. Loss (%)” value is recorded as 2.1 up to %. Moreover, the “DSC Endo. (onset, ° C.)” value in data set [3] was 76.4 °C.

For `CCCCc1nc(-c2ccc(OCCCN(CC)CC)cc2)cn1-c1ccc(Oc2ccc(Cl)cc2)cc1.O=C(O)c1cc(O)ccc1O` [Gentisate Type A], in data set [1], the “Stoichiometry (acid/base)” value is 1.01. Besides, the “Speculated Form” value in data set [2] is “Hydrate”. In addition, in data set [2] (up to 120° C.), the “TGA Wt. Loss (%)” value is recorded as 1.8 up to %.

For the compound `Br.CCCCc1nc(-c2ccc(OCCCN(CC)CC)cc2)cn1-c1ccc(Oc2ccc(Cl)cc2)cc1` [HBr salt Type B], the “Stoichiometry (acid/base)” value in data set [1] was 2.07. Besides, in data set [2], the “TGA Wt. Loss (%)” value was “negligible” and the “Speculated Form” value is “Anhydrate”.

Turning to `CCCCc1nc(-c2ccc(OCCCN(CC)CC)cc2)cn1-c1ccc(Oc2ccc(Cl)cc2)cc1.O=C1NS(=O)(=O)c2ccccc21` [Saccharinate Type A], the “Stoichiometry (acid/base)” value in data set [1] stood at 1.22. In data set [2], the “TGA Wt. Loss (%)” value was “negligible” and the “Speculated Form” value is reported as “Anhydrate”. For the same compound, in data set [3], the “DSC Endo. (onset, ° C.)” value is 120.0 °C.

With `CCCCc1nc(-c2ccc(OCCCN(CC)CC)cc2)cn1-c1ccc(Oc2ccc(Cl)cc2)cc1.O=C(O)CNC(=O)c1ccccc1` [Hippurate Type A], the “Stoichiometry (acid/base)” value in data set [1] is recorded as 0.98. Moreover, in data set [2], the “TGA Wt. Loss (%)” value is “negligible” and the “Speculated Form” value is on record as “Anhydrate”. In data set [3], the “DSC Endo. (onset, ° C.)” value is 72.7 °C and the “DSC Endo., peak temperature” value came to 44.3 °C.

These data come from US11883383B2, “Pharmaceutically acceptable salts of [3-(4- {2-butyl-1-[4-(4-chloro-phenoxy)-phenyl]-1H-imidazol-4-yl} -phenoxy)-propyl]-diethyl-amine” (vTv Therapeutics LLC, priority 2018, dated 2024).
